Source: patent US8247211B2, “Glycopeptide antibiotics” (American Cyanamid Company, priority 2001, dated 2012)
Converted amounts (≈) assume the structure as drawn. Numbered stars: 1 amine (or outer) side, 2 acyl side, 3 side chain; on linkers, the order of the positions; unused ones are H or OH. Square brackets hold non-standard residues; d marks the D form. Peptide text beside a SMILES is read from it. ξ: configuration not given here. X3 = CC1(C)OCC2OC(N3C(=N)NCC3C(O)C(N[*:1])C(=O)[*:2])C3OC(C)(C)OC3C2O1; ξEnduracididine(βξ-OH,4'ξ) = N=C1NCC(C(O)C(N)C(=O)O)N1; ξPhe(βξ-Me) = CC(c1ccccc1)C(N)C(=O)O

Legend:
Experiment in all cases: In vitro antibacterial evaluation: minimum inhibitory concentration (MIC), broth dilution method
Format in all cases: cell-based
Details in all cases: 18 hours at 35° C.
Escherichia coli = tested on: Escherichia coli
Summary of the method: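 First, organisms are seeded at 5×10^5 CFU/mL into Muller-Hinton II […]. Next, antibiotic is applied across 64-0.06 μg/mL by broth dilution (NCCLS M7-A2). Finally, the lowest inhibitory concentration is recorded as MIC.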

Streptococcus sp. = tested on: Streptococcus sp.
Summary of the method: (§1)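 MIC by broth dilution in Mueller-Hinton II medium following NCCLS M7-A2. Inoculum was 5×10^5 CFU/mL and antibiotic was tested over 64-0.06 μg/mL. Gram-positive panel included clinical isolates resistant to methicillin, penicillin and/or vancomycin.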

Staphylococcus sp. = tested on: Staphylococcus sp.
Summary of the method: as §1

Enterococcus sp. = tested on: Enterococcus sp.
Summary of the method: as §1

Row | MIC Escherichia coli (ATCC 25922) (Escherichia coli) [µg/mL] | MIC Escherichia coli (GC 4559) (Escherichia coli) [µg/mL] | MIC Escherichia coli (GC 4560) (Escherichia coli) [µg/mL] | MIC Streptococcus agalactiae (GC 4564) (Streptococcus sp.) [µg/mL] | MIC Streptococcus pneumoniae (ATCC 6301) (Streptococcus sp.) [µg/mL] | MIC Streptococcus pneumoniae (GC 1894) (Streptococcus sp.) [µg/mL] | MIC Streptococcus pyogenes (GC 4563) (Streptococcus sp.) [µg/mL] | MIC Coagulase Negative Staphylococcus (GC 4547) (Staphylococcus sp.) [µg/mL] | MIC Coagulase Negative Staphylococcus (GC 4548) (Staphylococcus sp.) [µg/mL] | MIC Coagulase Negative Staphylococcus (GC 4549) (Staphylococcus sp.) [µg/mL] | MIC Coagulase Negative Staphylococcus (GC 4551) (Staphylococcus sp.) [µg/mL] | MIC Coagulase Negative Staphylococcus (GC 6257) (Staphylococcus sp.) [µg/mL] | MIC Staphylococcus aureus (ATCC 29213) (Staphylococcus sp.) [µg/mL] | MIC Staphylococcus aureus (GC 1131) (Staphylococcus sp.) [µg/mL] | MIC Staphylococcus aureus (GC 3051) (Staphylococcus sp.) [µg/mL] | MIC Staphylococcus aureus (GC 3053) (Staphylococcus sp.) [µg/mL] | MIC Staphylococcus aureus (GC 4541) (Staphylococcus sp.) [µg/mL] | MIC Staphylococcus aureus (GC 4542) (Staphylococcus sp.) [µg/mL] | MIC Staphylococcus aureus (GC 4544) (Staphylococcus sp.) [µg/mL] | MIC Staphylococcus aureus (GC 4545) (Staphylococcus sp.) [µg/mL] | SMILES | also measured
1 | >64 | >64 | >64 | >64 | >64 | >64 | >64 | >64 | >64 | >64 | >64 | >64 | >64 | >64 | >64 | >64 | >64 | >64 | >64 | >64 | CC(c1ccccc1)C1NC(=O)CNC(=O)C(CO)NC(=O)C(C(O)C2CNC(=N)N2C2OC3COC(C)(C)OC3C3OC(C)(C)OC32)NC(=O)C(C(O)C2CNC(=N)N2)NC(=O)C(Cc2ccc(O)cc2)NC1=O (stereo not drawn) [Example 247, Cyclo[glycyl-β-methylphenylalanyltyrosyl-3-(2-iminoimidazolidin-4-yl)seryl-3-(2,3:4,6-diisopropylidenehexopyranosyl)-2-iminoimidazolidin-4-ylserylseryl]] (cyclo(G[ξPhe(βξ-Me)]Y[ξEnduracididine(βξ-OH,4'ξ)][X3]S); configuration not given here) | MIC Streptococcus pneumoniae (GC 4565) (Streptococcus sp.; Streptococcus pneumoniae (GC 4565)): >64 µg/mL; MIC Staphylococcus aureus-SMITH (GC 4543) (Staphylococcus sp.): >64 µg/mL; MIC Staphylococcus haemolyticus (GC 4546) (Staphylococcus sp.): >64 µg/mL; MIC Enterococcus avium (GC 4558) (Enterococcus sp.): >64 µg/mL; MIC Enterococcus faecalis (ATCC 29212) (Enterococcus sp.): >64 µg/mL; MIC Enterococcus faecalis (GC 2242) (Enterococcus sp.): >64 µg/mL; MIC Enterococcus faecalis (GC 2691) (Enterococcus sp.): >64 µg/mL; MIC Enterococcus faecalis (GC 3059) (Enterococcus sp.; Enterococcus faecalis (GC 3059)): >64 µg/mL; MIC Enterococcus faecalis (GC 4552) (Enterococcus sp.; Enterococcus faecalis (GC 4552)): >64 µg/mL; MIC Enterococcus faecalis (GC 4553) (Enterococcus sp.): >64 µg/mL; MIC Enterococcus faecalis (GC 4554) (Enterococcus sp.): >64 µg/mL; MIC Enterococcus faecalis (GC 6189) (Enterococcus sp.): >64 µg/mL; MIC Enterococcus faecium (GC 2243) (Enterococcus sp.): >64 µg/mL; MIC Enterococcus faecium (GC 4556) (Enterococcus sp.): >64 µg/mL; MIC Enterococcus faecium (GC 4557) (Enterococcus sp.): >64 µg/mL
2 | 64 (≈ 54.9 µM) | 64 (≈ 54.9 µM) | 8 (≈ 6.86 µM) | 64 (≈ 54.9 µM) | 64 (≈ 54.9 µM) | 64 (≈ 54.9 µM) | 32 (≈ 27.5 µM) | 16 (≈ 13.7 µM) | 32 (≈ 27.5 µM) | 32 (≈ 27.5 µM) | 32 (≈ 27.5 µM) | 16 (≈ 13.7 µM) | 32 (≈ 27.5 µM) | 32 (≈ 27.5 µM) | 64 (≈ 54.9 µM) | 64 (≈ 54.9 µM) | 32 (≈ 27.5 µM) | 64 (≈ 54.9 µM) | 32 (≈ 27.5 µM) | 32 (≈ 27.5 µM) | CC(c1ccccc1)C1NC(=O)CNC(=O)C(CO[Si](C)(C)C(C)(C)C)NC(=O)C(C(O)C2CNC(=N)N2C2OC3COC(C)(C)OC3C3OC(C)(C)OC32)NC(=O)C(C(O)C2CNC(=N)N2)NC(=O)C(Cc2ccc(O)cc2)NC1=O (stereo not shown) [Example 248] | MIC Staphylococcus aureus-SMITH (GC 4543) (Staphylococcus sp.): 32 µg/mL (≈ 27.5 µM); MIC Staphylococcus haemolyticus (GC 4546) (Staphylococcus sp.): 16 µg/mL (≈ 13.7 µM); MIC Enterococcus avium (GC 4558) (Enterococcus sp.): 8 µg/mL (≈ 6.86 µM); MIC Enterococcus faecalis (ATCC 29212) (Enterococcus sp.): 64 µg/mL (≈ 54.9 µM); MIC Enterococcus faecalis (GC 2242) (Enterococcus sp.): 64 µg/mL (≈ 54.9 µM); MIC Enterococcus faecalis (GC 2691) (Enterococcus sp.): 32 µg/mL (≈ 27.5 µM); MIC Enterococcus faecalis (GC 4553) (Enterococcus sp.): 16 µg/mL (≈ 13.7 µM); MIC Enterococcus faecalis (GC 4554) (Enterococcus sp.): 64 µg/mL (≈ 54.9 µM); MIC Enterococcus faecalis (GC 6189) (Enterococcus sp.): 32 µg/mL (≈ 27.5 µM); MIC Enterococcus faecium (GC 2243) (Enterococcus sp.): 32 µg/mL (≈ 27.5 µM); MIC Enterococcus faecium (GC 4556) (Enterococcus sp.): 32 µg/mL (≈ 27.5 µM); MIC Enterococcus faecium (GC 4557) (Enterococcus sp.): 16 µg/mL (≈ 13.7 µM)
